Results reported in ChEMBL document CHEMBL4420060, “Combinatorial therapies for the treatment of neoplasias using the opioid growth factor receptor” (2013).
The source made the active and inactive calls. No cut-off for these calls is given here.

What was measured:
[1] = test system: MIA PaCa-2; assay: Growth inhibition of human MIAPaCa2 cells assessed as decrease in cell number at 0.01 uM incubated for 96 hrs in presence of 1 uM opioid antagonist naloxone by MTS assay relative to control; format: functional, cell-based
[2] = test system: UMSCC1; assay: Antitumor activity against human UM-SCC-1 cells xenografted in nu/nu mouse assessed as latency time for measurable (62.5 mm3) tumors at 120 mg/kg dosed every 3 days and co-treated with 10 mg/kg OGF (Rvb <=14 days); format: functional
[3] = test system: MIA PaCa-2; assay: Antitumor activity against human MIAPaCa2 cells xenografted in athymic BALB/c nu/nu nude mouse assessed as effect on tumor incidence at 120 mg/kg dosed every 3 days and co-treated with 10 mg/kg OGF measured on day 16 after tumor cell inoculation relative to control; format: functional, organism-based
[4] = test system: MIA PaCa-2; assay: Antitumor activity against human MIAPaCa2 cells xenografted in athymic BALB/c nu/nu nude mouse assessed as tumor incidence at 120 mg/kg dosed every 3 days and co-treated with 10 mg/kg OGF and measured on day 16 after tumor cell inoculation; format: functional
[5] = test system: MIA PaCa-2; assay: Antitumor activity against human MIAPaCa2 cells xenografted in athymic BALB/c nu/nu nude mouse assessed as effect on tumor incidence at 120 mg/kg dosed every 3 days measured on day 16 after tumor cell inoculation relative to control; format: functional, organism-based
[6] = test system: MIA PaCa-2; assay: Antitumor activity against human MIAPaCa2 cells xenografted in athymic BALB/c nu/nu nude mouse assessed as latency time for measurable tumor at 120 mg/kg dosed every 3 days and co-treated with 10 mg/kg OGF measured on day 10 after tumor cell inoculation (reference value: 13.2 +/- 1.8 days); format: functional
[7] = test system: MIA PaCa-2; assay: Growth inhibition of human MIAPaCa2 cells assessed as decrease in cell number at 0.01 uM in presence of 1 uM OGF incubated for 48 hrs followed by compound wash out by 50% replacement of media and measured after 48 hrs by MTS assay relative to control; format: functional, cell-based
[8] = test system: MIA PaCa-2; assay: Antitumor activity against human MIAPaCa2 cells xenografted in athymic BALB/c nu/nu nude mouse assessed spleen weight at 120 mg/kg dosed every 3 days and co-treated with 10 mg/kg OGF measured on day 45 after tumor cell inoculation (reference value: 761 +/- 61 mg); format: functional
[9] = test system: MIA PaCa-2; assay: Growth inhibition of human MIAPaCa2 cells assessed as decrease in cell number at 0.01 uM incubated for 48 hrs in presence of 1 uM OGF by trypan blue staining assay relative to control; format: functional
[10] = test system: MIA PaCa-2; assay: Antitumor activity against human MIAPaCa2 cells xenografted in athymic BALB/c nu/nu nude mouse assessed tumor volume at 120 mg/kg dosed every 3 days and co-treated with 10 mg/kg OGF measured on day 45 after tumor cell inoculation (reference value: 8935 +/- 1694 mm3); format: functional
[11] = test system: UMSCC1; assay: Antitumor activity against human UM-SCC-1 cells xenografted in nu/nu mouse assessed as reduction in tumor measured on 4 to 36 day of measurable tumors at 120 mg/kg dosed every 3 days and co-treated with 10 mg/kg OGF relative to control; format: functional, organism-based
[12] = test system: MIA PaCa-2; assay: Antitumor activity against human MIAPaCa2 cells xenografted in athymic BALB/c nu/nu nude mouse assessed tumor volume at 10 mg/kg dosed daily measured on day 45 after tumor cell inoculation (reference value: 8935 +/- 1694 mm3); format: functional
[13] = test system: Mus musculus; assay: Effect on plasma OGF level in athymic BALB/c nu/nu nude mouse xenografted with MIAPaCa2 cells at 120 mg/kg dosed every 3 days and co-treated with 10 mg/kg OGF by radioimmunoassay; format: functional, organism-based
[14] = test system: MIA PaCa-2; assay: Antitumor activity against human MIAPaCa2 cells xenografted in athymic BALB/c nu/nu nude mouse assessed as time delay in visible tumor development at 120 mg/kg dosed every 3 days and co-treated with 10 mg/kg OGF relative to control; format: functional
[15] = test system: MIA PaCa-2; assay: Antitumor activity against human MIAPaCa2 cells xenografted in athymic BALB/c nu/nu nude mouse assessed tumor weight at 120 mg/kg dosed every 3 days and co-treated with 10 mg/kg OGF measured on day 45 after tumor cell inoculation (reference value: 5.5 +/- 1 g); format: functional
[16] = Toxicity in athymic BALB/c nu/nu nude mouse xenografted with human MIAPaCa2 cells assessed as body weight at 10 mg/kg dosed daily measured on day 45 after tumor cell inoculation (reference value: 33.3 +/- 1 g); format: organism-based; details: in vivo
[17] = test system: UMSCC1; assay: Induction of cell cycle arrest in human UM-SCC-1 cells assessed as accumulation at G1/S phase after 6 hrs by flow cytometry; format: functional, cell-based
[18] = test system: UMSCC1; assay: Growth inhibition of human UM-SCC-1 cells assessed as decrease in cell number at 0.01 uM in presence of 1 uM opioid antagonist naloxone incubated for 24 to 96 hrs by MTS assay relative to control; format: functional, cell-based
[19] = test system: PANC-1; assay: Growth inhibition of human PANC1 cells assessed as decrease in cell number at 0.01 uM incubated for 72 hrs by MTS assay relative to control; format: functional; details: PANC-1, 72 h, read-out: GI
[20] = test system: MIA PaCa-2; assay: Growth inhibition of human MIAPaCa2 cells assessed as decrease in cell number at 0.01 uM incubated for 72 hrs in presence of 1 uM OGF by MTS assay relative to control; format: functional
[21] = test system: MIA PaCa-2; assay: Antitumor activity against human MIAPaCa2 cells xenografted in athymic BALB/c nu/nu nude mouse assessed as tumor incidence at 120 mg/kg dosed every 3 days and co-treated with 10 mg/kg OGF measured on day 10 after tumor cell inoculation (reference value: 80%); format: functional
[22] = test system: MIA PaCa-2; assay: Antitumor activity against human MIAPaCa2 cells xenografted in athymic BALB/c nu/nu nude mouse assessed as latency time for measurable tumor at 10 mg/kg dosed daily measured on day 10 after tumor cell inoculation (reference value: 13.2 +/- 1.8 days); format: functional
[23] = test system: MIA PaCa-2; assay: Antitumor activity against human MIAPaCa2 cells xenografted in athymic BALB/c nu/nu nude mouse assessed as tumor incidence at 10 mg/kg dosed daily measured on day 10 after tumor cell inoculation (reference value: 80%); format: functional
[24] = test system: MIA PaCa-2; assay: Antitumor activity against human MIAPaCa2 cells xenografted in athymic BALB/c nu/nu nude mouse assessed as reduction in tumor weight at 120 mg/kg dosed every 3 days and co-treated with 10 mg/kg OGF measured on day 45 after tumor cell inoculation; format: functional; parameters: scale not given: the % may be the effect or the level left
[25] = test system: UMSCC1; assay: Induction of cell cycle arrest in human UM-SCC-1 cells assessed as accumulation at G1/S phase in presence of OGF after 6 hrs by flow cytometry; format: functional, cell-based
[26] = test system: MIA PaCa-2; assay: Antitumor activity against human MIAPaCa2 cells xenografted in athymic BALB/c nu/nu nude mouse assessed spleen weight at 10 mg/kg dosed daily measured on day 45 after tumor cell inoculation (reference value: 761 +/- 61 mg); format: functional
[27] = test system: Mus musculus; assay: Effect on plasma OGF level in athymic BALB/c nu/nu nude mouse xenografted with MIAPaCa2 cells at 120 mg/kg dosed every 3 days by radioimmunoassay; format: functional, organism-based
[28] = Toxicity in athymic BALB/c nu/nu nude mouse xenografted with human MIAPaCa2 cells assessed as body weight at 120 mg/kg dosed every 3 days and co-treated with 10 mg/kg OGF measured on day 45 after tumor cell inoculation (reference value: 33.3 +/- 1 g); format: organism-based; details: in vivo, 72 h

## Nc1ccn([C@@H]2O[C@H](CO)[C@@H](O)C2(F)F)c(=O)n1 [GEMCITABINE]
[1]
  growth inhibition (GI): Active
[2]
  Time: 20 days
[3]
  Activity: inactive
[4]
  Activity: 0%
[5]
  Activity: inactive
[6]
  Time: 19.5 days
[7]
  growth inhibition (GI): Active
[8]
  Activity: 437 mg
[9]
  growth inhibition (GI): 26.3%
[10]
  Activity: 1477 mm3
[11]
  Activity: Active
[12]
  Activity: 4849 mm3
[13]
  Activity: inactive
[14]
  Time: 6 days
[15]
  Activity: 0.8 g
[16]
  Activity: 31.4 g
[17]
  Activity: Active
[18]
  growth inhibition (GI): Active
[19]
  inhibition of growth at 0.01 µM: 54%
[20]
  growth inhibition (GI): 49%
[21]
  Activity: 0%
[22]
  Time: 14.2 days
[23]
  Activity: 60%
[24]
  Activity: 85%
[25]
  Activity: Active
[26]
  Activity: 606 mg
[27]
  Activity: inactive
[28]
  Activity: 30.6 g
